From patent publication US20140357726A1, “USE OF PEGYLATED ALCOHOLS FOR THE TREATMENT OF ACTINIC KERATOSIS” (MERZ PHARMA GmbH & CO. KGaA, priority 2011, published 2014)

Test system: NHEK-cells
Experiment: Resazurin viability assay on primary normal human epidermal keratinocytes (cytolytic potential)
Assay type: cell-based
Conditions: metabolic activity as read-out (Resazurin-assay); eight concentrations up to 1 mM
Procedure: By using primary, normal human epidermal keratinocytes (NHEK, FIG. 1) the cytolytic potential of the drug compound was investigated.
The viability of the cells was monitored by their metabolic activity using the Resazurin-assay. Eight different concentrations (up to 1 mM) of polidocanol were investigated. Viability of the cells was plotted against the different concentration of test compound.
From the resulting sigmoid-curve the IC50 value for the cytolytic effect was determined and given in the respective figure. FIG. 1 depicts the relative viability of NHEK-cells vs. the concentration of test-compound using metabolic activity as read-out.

Polidocanol
relative viability of NHEK-cells vs. the concentration of test-compound: clear negative-impact
